Test results published in ChEMBL document CHEMBL1201862, “PubChem BioAssay data set” (2004).
Calls of active or inactive are those of the source.

What was measured:
[1] = Luminescence Cell-Based Dose Response Follow up to Identify Inhibitors of Platelet Dense Granule Release. [Related pubchem assays (depositor defined):AID1663, AID1678, AID1889, AID2519]; format: functional
[2] = blockers of SFLLRN-triggered platelet ATP secretion – cell-based, human platelets, luminescence, dry powder, dose response (AID 493100); format: functional
[3] = SFLLRN-induced P-Selectin Platelet Surface Expression Measured in Cell-Based System Using Flow Cytometry - 2016-03_Inhibitor_Dose_DryPowder_Activity_Set3. [Related pubchem assays (depositor defined):AID1678]; format: functional
[4] = inhibitors of HIV Env-driven cell fusion, dose response, cherry-pick (AID 652057); format: functional, cell-based
HEK293 [5] = assay: cells; conditions: Homo sapiens
[6] = ZM109 Env clade C HIV-1 fusion inhibitors, dose response, HeLa effector, CEM target cells, luciferase, cherry-pick (AID 652058); format: functional, cell-based
[7] = inhibitors of clade B AD8 Env fusion, dose response, cell-based, cherry-pick (AID 652062); format: functional;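 also: luciferase signal from cell-cell fusion driven by HIV-1 clade B AD8 Env; potency is for inhibitors of fusion seen as a drop in luminescence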
HEK293 [8] = assay: cells; conditions: Homo sapiens; remark: listed apart in the source
[9] = off-target signal loss in HeLa-CEM21 co-culture – HeLa F-luc CTL cells, cherry-picked, counter-screen for HIV-1 Env fusion inhibitor project, dose response (AID 652040); format: functional, cell-based;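 also: potency for signal decrease marking cytotoxic or nonspecific inhibition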
Streptococcus = assay: Group A Streptococcus viability loss, dose response, counter-screen for streptokinase expression inhibitor project, luminescence, BacTiterGlo (AID 1915); format: functional, organism-based;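 also: potency for reduction of bacterial viability or growth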
[10] = THP-1 cell cytotoxicity, dose response, cytotoxicity control for non-replicating M. tuberculosis project (AID 489025); format: functional
[11] = cytotoxicity toward NIH3T3 fibroblasts, dose response, counter-screen, cell-based, ATP luminescence, mouse fibroblasts (AID 2010); format: functional;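 also: cells exposed to compound for about 90 hours before reading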
Cytochrome P450 2C19 = Cytochrome P450 2C19 (Homo sapiens, UniProt P33261); assay: Cytochrome panel assay with activity outcomes. Panel member name: p450-cyp2c19 Compounds with AC50 equal or less than 10 uM are considered active; format: functional; conditions: read-out: AC50
[12] = cytotoxicity in HEK-293T cells, dose response, cytotoxicity control for TCR NF-kB inhibitor project, luminescence, T-cell screen hits (AID 489026); format: functional, cell-based;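 also: cells exposed to compound about 14 hours before the viability readout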
[13] = Vero E6 cell cytotoxicity, dose response, cytotoxicity control for non-replicating M. tuberculosis project, secondary assay (AID 492998); format: functional, VeroE6; conditions: Vero C1008
HT-1080 = assay: cytotoxicity in HT1080 fibrosarcoma cells, cell-based, fluorescence readout (AID 620); format: functional; conditions: Homo sapiens
Streptokinase A = target: T1, Streptokinase A (Streptococcus pyogenes serotype M1, UniProt P10520); assay: S. pyogenes streptokinase expression inhibitors, potency, dose response, plasminogen activation absorbance, OD405 (AID 1914); format: functional, Streptococcus pyogenes M1 GAS;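 also: secreted streptokinase activity via plasminogen activation per viability signal from cell pellet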
T1 sequence (P10520 whole entry): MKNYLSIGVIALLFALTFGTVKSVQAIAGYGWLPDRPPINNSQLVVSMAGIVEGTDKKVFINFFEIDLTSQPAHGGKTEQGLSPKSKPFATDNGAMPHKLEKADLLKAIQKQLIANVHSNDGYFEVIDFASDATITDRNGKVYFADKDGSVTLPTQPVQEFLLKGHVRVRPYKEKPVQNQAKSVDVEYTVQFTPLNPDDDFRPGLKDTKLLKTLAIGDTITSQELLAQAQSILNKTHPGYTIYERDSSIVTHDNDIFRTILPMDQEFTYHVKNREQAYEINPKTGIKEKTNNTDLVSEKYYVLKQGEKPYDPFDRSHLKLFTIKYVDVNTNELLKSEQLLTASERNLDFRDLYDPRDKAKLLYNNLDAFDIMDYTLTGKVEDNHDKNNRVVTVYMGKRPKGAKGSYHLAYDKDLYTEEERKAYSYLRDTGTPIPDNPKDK

cells = format: functional
[14] = growth suppression of beta-catenin-knockout colon cells, dose response, cell-based, HCT116, human colon tumor (AID 1045); format: functional;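 also: HCT116 colon tumor cells with beta catenin knocked out; cells exposed to compound for 60 hours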
Estrogen receptor = target: T2, Estrogen receptor (Homo sapiens, UniProt P03372);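 also: potency for inhibiting coactivator peptide recruitment to the receptor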
T2 sequence (P03372 whole entry): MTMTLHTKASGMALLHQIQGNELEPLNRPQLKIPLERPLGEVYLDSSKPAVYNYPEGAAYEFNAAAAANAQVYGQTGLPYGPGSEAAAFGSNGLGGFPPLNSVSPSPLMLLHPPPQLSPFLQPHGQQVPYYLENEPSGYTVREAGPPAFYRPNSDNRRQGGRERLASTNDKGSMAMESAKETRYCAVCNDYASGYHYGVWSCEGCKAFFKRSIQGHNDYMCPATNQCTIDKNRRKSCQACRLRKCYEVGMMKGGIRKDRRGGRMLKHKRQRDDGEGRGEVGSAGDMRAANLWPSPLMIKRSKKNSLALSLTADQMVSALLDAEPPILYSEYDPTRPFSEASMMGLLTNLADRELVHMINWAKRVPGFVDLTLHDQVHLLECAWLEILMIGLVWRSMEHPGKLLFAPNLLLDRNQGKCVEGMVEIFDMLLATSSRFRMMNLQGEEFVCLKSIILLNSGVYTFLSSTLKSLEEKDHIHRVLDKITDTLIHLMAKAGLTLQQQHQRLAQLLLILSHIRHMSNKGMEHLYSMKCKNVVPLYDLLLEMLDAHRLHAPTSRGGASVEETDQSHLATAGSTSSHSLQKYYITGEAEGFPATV

H4 [15] = assay: Amyloid Precursor 5' UTR neuroblastoma cell reporter line Measured in Cell-Based System Using Plate Reader - 2078-04_Inhibitor_Dose_DryPowder_Activity. [Related pubchem assays (depositor defined):AID488894]; format: functional; conditions: Homo sapiens
[16] = target: T3, Heat shock factor protein 1 (Mus musculus, UniProt P38532); assay: inhibition of MG132-induced HSE-luciferase signal, confirmation, cell-based, NIH3T3, luminescence, dose retest (AID 2382); format: functional;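 also: NIH3T3 fibroblasts with HSF1-driven luciferase reporter stressed by proteasome inhibitor MG132; luminescence from HSF1-driven luciferase expression after 8 hours of MG132 stress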
T3 sequence (P38532 whole entry): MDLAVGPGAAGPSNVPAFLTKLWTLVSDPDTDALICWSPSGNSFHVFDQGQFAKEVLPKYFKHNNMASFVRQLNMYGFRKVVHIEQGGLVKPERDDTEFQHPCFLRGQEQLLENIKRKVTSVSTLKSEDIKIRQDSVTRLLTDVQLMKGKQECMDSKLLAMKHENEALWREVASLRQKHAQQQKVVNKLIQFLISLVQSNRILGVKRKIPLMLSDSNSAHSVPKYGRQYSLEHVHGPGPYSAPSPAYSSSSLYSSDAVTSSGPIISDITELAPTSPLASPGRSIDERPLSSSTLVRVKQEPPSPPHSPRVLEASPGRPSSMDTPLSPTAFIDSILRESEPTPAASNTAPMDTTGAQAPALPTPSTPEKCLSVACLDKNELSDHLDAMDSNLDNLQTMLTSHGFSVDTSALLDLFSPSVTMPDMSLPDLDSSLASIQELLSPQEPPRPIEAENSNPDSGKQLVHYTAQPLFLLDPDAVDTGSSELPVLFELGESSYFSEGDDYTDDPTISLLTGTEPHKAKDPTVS

[17] = growth suppression of PTEN-null colon cells, dose response, cell-based, HCT116 PTEN knockout (AID 1047); format: functional;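 also: HCT116 colon tumor cells with PTEN knocked out; cells exposed to compound for 60 hours before readout; potency for loss of cell viability measured by luminescence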
[18] = target: T4, Microphthalmia-associated transcription factor (Homo sapiens, UniProt O75030); assay: TRPM1 promoter luciferase signal decrease, dose response, MITF inhibitor project, cell-based, SK-MEL-5, cherry-picked, set 3 (AID 493073); format: functional
T4 sequence (O75030 whole entry): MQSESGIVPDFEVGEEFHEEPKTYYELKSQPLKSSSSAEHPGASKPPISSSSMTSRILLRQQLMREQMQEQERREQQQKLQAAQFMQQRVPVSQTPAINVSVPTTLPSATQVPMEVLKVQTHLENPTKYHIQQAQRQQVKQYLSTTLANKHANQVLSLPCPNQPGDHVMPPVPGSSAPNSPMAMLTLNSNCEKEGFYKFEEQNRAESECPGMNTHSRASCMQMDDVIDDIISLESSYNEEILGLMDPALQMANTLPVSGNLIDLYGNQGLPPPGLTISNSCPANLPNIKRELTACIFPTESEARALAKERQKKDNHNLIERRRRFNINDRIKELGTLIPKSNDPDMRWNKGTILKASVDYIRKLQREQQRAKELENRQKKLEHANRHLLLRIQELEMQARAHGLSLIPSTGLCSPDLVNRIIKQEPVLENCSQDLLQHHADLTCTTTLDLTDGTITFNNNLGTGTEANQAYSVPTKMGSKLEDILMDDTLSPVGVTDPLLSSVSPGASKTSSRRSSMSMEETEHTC

H4 [19] = assay: Inhibitors of Prion Protein 5' UTR mRNA Measured in Cell-Based System Using Plate Reader - 2078-01_Inhibitor_Dose_DryPowder_Activity. [Related pubchem assays (depositor defined):AID488894]; format: functional; conditions: Homo sapiens
Cytochrome P450 2D6 = Cytochrome P450 2D6 (Homo sapiens, UniProt P10635);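 also: CYP2D6 member of a cytochrome P450 panel assay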
[20] = test system: Streptococcus sp. 'group A'; assay: growth inhibition of control SK(-) GAS strain, dose response, counter-screen for streptokinase expression inhibitor project, luminescence, kanamycin, BacTiterGlo, confirmation (AID 1900); format: functional, organism-based
H4 [21] = assay: inhibitors of control reporter signal in H4 cells – cell-based, plate reader, dry powder samples, counter-screen for prion reporter project, dose response (AID 540255); format: functional; conditions: Homo sapiens
[22] = inhibitors of intracellular T. cruzi replication, confirmation, NIH3T3 host cells, beta-gal luminescence (AID 2044); format: functional, cell-based;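 also: intracellular parasites grown in NIH/3T3 mouse fibroblasts as host cells; luminescent beta-galactosidase reporter signal from transgenic T. cruzi replicating inside host cells; inhibitors lower the luminescence signal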
[23] = target: Luciferin 4-monooxygenase (Photinus pyralis, UniProt P08659); assay: Counter Screen for Luciferase-based Assay Positives. [Related pubchem assays: 620, 618, 411 ]
Luciferin 4-monooxygenase, sequence (P08659 whole entry): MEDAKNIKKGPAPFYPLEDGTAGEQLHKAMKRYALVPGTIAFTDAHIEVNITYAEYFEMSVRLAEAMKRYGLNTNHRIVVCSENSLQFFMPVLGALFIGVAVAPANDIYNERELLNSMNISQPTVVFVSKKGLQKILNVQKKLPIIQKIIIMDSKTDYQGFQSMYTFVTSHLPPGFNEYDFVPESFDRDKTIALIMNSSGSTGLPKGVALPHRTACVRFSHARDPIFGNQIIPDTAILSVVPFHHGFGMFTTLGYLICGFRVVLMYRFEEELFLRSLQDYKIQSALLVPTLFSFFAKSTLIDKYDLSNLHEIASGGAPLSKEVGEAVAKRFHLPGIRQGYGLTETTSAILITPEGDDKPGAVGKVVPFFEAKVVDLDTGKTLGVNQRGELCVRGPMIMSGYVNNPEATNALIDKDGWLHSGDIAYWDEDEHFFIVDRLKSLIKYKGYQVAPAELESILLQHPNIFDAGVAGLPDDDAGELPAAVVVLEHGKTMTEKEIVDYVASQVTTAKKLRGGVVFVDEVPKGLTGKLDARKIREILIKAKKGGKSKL

Cytochrome P450 2D6, sequence (P10635 whole entry): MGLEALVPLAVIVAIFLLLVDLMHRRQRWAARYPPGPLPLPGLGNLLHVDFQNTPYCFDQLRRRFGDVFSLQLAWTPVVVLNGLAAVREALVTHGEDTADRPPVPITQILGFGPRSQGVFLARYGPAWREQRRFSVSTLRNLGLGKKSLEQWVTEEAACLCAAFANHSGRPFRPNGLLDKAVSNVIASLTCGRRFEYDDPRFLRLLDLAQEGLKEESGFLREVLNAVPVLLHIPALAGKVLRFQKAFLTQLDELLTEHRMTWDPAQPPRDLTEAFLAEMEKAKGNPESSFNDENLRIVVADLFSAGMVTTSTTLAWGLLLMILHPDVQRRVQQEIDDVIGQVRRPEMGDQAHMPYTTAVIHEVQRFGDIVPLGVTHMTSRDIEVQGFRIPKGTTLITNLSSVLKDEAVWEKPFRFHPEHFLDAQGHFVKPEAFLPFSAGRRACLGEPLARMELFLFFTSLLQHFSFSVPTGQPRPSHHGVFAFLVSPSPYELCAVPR
Cytochrome P450 2C19, sequence (P33261 whole entry): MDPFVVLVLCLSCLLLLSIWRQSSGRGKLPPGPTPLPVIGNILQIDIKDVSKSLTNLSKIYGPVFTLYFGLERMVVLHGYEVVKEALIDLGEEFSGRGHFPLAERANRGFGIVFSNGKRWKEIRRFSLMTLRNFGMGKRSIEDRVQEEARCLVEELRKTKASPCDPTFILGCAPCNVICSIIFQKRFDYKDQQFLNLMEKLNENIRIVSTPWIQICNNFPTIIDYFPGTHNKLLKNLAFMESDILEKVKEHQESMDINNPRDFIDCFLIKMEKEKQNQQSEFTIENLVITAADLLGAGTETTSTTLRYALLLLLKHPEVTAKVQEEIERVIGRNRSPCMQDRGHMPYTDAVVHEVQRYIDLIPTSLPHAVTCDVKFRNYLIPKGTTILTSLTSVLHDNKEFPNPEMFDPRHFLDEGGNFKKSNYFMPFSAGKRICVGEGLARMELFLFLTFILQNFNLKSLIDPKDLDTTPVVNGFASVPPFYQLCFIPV

COc1ccc(C(=O)Nc2cccc(NC(C)=O)c2)cc1
active: EC50 [1] 3.96 µM | AC50 [2] 12.8 µM | AC50 [3] 3.53 µM

COc1ccc(Cl)cc1CC1(C)C(=O)Nc2ccc(S(=O)(=O)NC3CCCCC3)cc21 (stereo not given)
active: AC50 [4] 749 nM | AC50 [6] 768 nM | AC50 [7] 3.04 µM | AC50 [9] 1.07 µM
inactive: EC50 (HEK293 [5]) > 59.6 µM | EC50 (HEK293 [8]) > 59.6 µM

Cc1ccc(C(=O)N/N=C/c2ccc([N+](=O)[O-])s2)cc1
inconclusive: AC50 (Cytochrome P450 2C19) 39.8 µM | AC50 (Cytochrome P450 2D6) 15.8 µM
> 30 µM (not active): EC50 [11]
> 50 µM (not active): EC50 (HT-1080)
inactive: IC50 [12] > 80 µM
active: EC50 (Streptococcus) 14.3 µM | CC50 [10] 12.2 µM | CC50 [13] 11.5 µM | IC50 (cells) 5.2 µM | EC50 [14] 3.5 µM | IC50 (Estrogen receptor) 21.1 µM | AC50 (H4 [15]) 3 µM | EC50 [16] 324 nM | EC50 [17] 3.05 µM | AC50 [18] 2.2 µM | AC50 (H4 [19]) 875 nM | EC50 [20] 5.16 µM | AC50 (H4 [21]) 3.18 µM | EC50 [22] 720 nM | EC50 [23] 3.5 µM
> 150 µM (not active): EC50 (Streptokinase A)
